From ChEMBL document CHEMBL5518172, “Discovery of hydroxamate as a promising scaffold dually inhibiting metallo- and serine-β-lactamases” (Eur J Med Chem, 2024)
Active and inactive are the calls of the source. The rule behind the calls is not given here.

Experiments:
Bacteria [1] = assay: Inhibition of recombinant serine beta lactamase KPC-2 (unknown origin) expressed in Escherichia coli BL21 (DE3) cells using meropenem as substrate at 20 uM by spectrometric analysis relative to control
[2] = target: Metallo-beta-lactamase type 2 (Bacteria) (UniProt C7C422); assay: Inhibition of recombinant NDM-1 (unknown origin) expressed in Escherichia coli BL21 (DE3) cells using meropenem as substrate at 20 uM by spectrometric analysis relative to control
Escherichia coli [3] = assay: Synergistic antibacterial activity against Escherichia coli clinical isolate 06 assessed as fold decrease in meropenem MIC at 64 microg/ml measured after 16 hrs by CLSI protocol based broth microdilution method; format: functional; conditions: dose 64 µg/ml
[4] = target: Metallo-beta-lactamase type 2 (Bacteria) (UniProt C7C422); assay: Irreversible inhibition of recombinant NDM-1 (unknown origin) expressed in Escherichia coli BL21 (DE3) cells using meropenem as substrate assessed as reduction in residual activity at 5 uM preincubated for 6 hrs followed by dialysis and measured after 24 hrs
Bacteria [5] = assay: Inhibition of recombinant metallo-beta-lactamase ImiS (unknown origin) expressed in Escherichia coli BL21 (DE3) cells using meropenem as substrate at 20 uM by spectrometric analysis relative to control
Escherichia coli [6] = assay: Synergistic antibacterial activity against Escherichia coli BL21 (DE3) harboring serine beta lactamase OXA-48 assessed as reduction in meropenem MIC upto 256 microg/ml in presence of meropenem by microdilution checkerboard assay; format: functional, organism-based; conditions: dose <= 256.0 µg/ml
Bacteria [7] = assay: Inhibition of recombinant serine beta lactamase OXA-48 (unknown origin) expressed in Escherichia coli BL21 (DE3) cells assessed as maximal inhibition at 5 uM measured after 0.5 hrs
Escherichia coli [8] = assay: Synergistic antibacterial activity against Escherichia coli BL21 (DE3) harboring metallo-beta-lactamase IMP-1 assessed as reduction in meropenem MIC upto 256 microg/ml in presence of meropenem by microdilution checkerboard assay; format: functional, organism-based; conditions: dose <= 256.0 µg/ml
Escherichia coli [9] = assay: Synergistic antibacterial activity against Escherichia coli harboring NDM-1 infected in Kunming mouse model assessed as reduction in bacterial load in spleen at 20 mg/kg, ip co-administered with 10 mg/kg of meropenem; format: functional, organism-based
[10] = Non-competitive inhibition of recombinant serine beta lactamase KPC-2 (unknown origin) expressed in Escherichia coli BL21 (DE3) cells using meropenem as substrate assessed as inhibition constant by Lineweaver-Burk plot analysis; parameters: species or system Bacteria
Bacteria [11] = assay: Inhibition of recombinant metallo-beta-lactamase IMP-1 (unknown origin) expressed in Escherichia coli BL21 (DE3) cells using cefazolin as substrate at 20 uM by spectrometric analysis relative to control
[12] = target: Metallo-beta-lactamase type 2 (Bacteria, UniProt C7C422); assay: Inhibition of recombinant NDM-1 (unknown origin) expressed in Escherichia coli BL21 (DE3) cells using meropenem as substrate by spectrometric analysis
Escherichia coli [13] = assay: Antibacterial activity against Escherichia coli BL21 (DE3) harboring NDM-1 assessed as inhibition of bacterial growth upto 512 microg/ml by microdilution checkerboard assay; format: functional, organism-based; conditions: dose <= 512.0 µg/ml
Bacteria [14] = assay: Irreversible inhibition of recombinant serine beta lactamase OXA-48 (unknown origin) expressed in Escherichia coli BL21 (DE3) cells using cefazolin as substrate assessed as reduction in residual activity at 5 uM preincubated for 6 hrs followed by dialysis and measured after 24 hrs
[15] = Inhibition of recombinant serine beta lactamase OXA-48 (unknown origin) expressed in Escherichia coli BL21 (DE3) cells using meropenem as substrate by spectrometric analysis; parameters: species or system Bacteria
Escherichia coli [16] = assay: Synergistic antibacterial activity against Escherichia coli BL21 (DE3) harboring serine beta lactamase KPC-2 assessed as decrease in bacterial colony at 128 microg/ml incubated for 12 hrs in presence of meropenem by imaging analysis; format: functional, organism-based; conditions: dose 128.0 µg/ml
[17] = Cytotoxicity against mouse L929 cells assessed as cell viability upto 200 uM incubated for 48 hrs by CCK8 assay relative to control; format: toxicity, cell-based; conditions: read-out: Activity
Escherichia coli [18] = assay: Antibacterial activity against Escherichia coli BL21 (DE3) harboring serine beta lactamase KPC-2 assessed as inhibition of bacterial growth upto 512 microg/ml by microdilution checkerboard assay; format: functional, organism-based; conditions: dose <= 512.0 µg/ml
Escherichia coli [19] = assay: Synergistic antibacterial activity against Escherichia coli BL21 (DE3) harboring serine beta lactamase KPC-2 assessed as meropenem MIC at 64 microg/ml measured after 16 hrs by CLSI protocol based broth microdilution method (reference value: 16 microg/ml); format: functional; conditions: dose 64 µg/ml
Bacteria [20] = assay: Inhibition of recombinant IMP-1 (unknown origin) expressed in Escherichia coli BL21 (DE3) cells assessed as maximal inhibition at 5 uM incubated for 10 hrs
Escherichia coli [21] = assay: Antibacterial activity against Escherichia coli harboring NDM-1 infected in Kunming mouse model assessed as reduction in bacterial load in spleen at 20 mg/kg, ip; format: functional, organism-based
Bacteria [22] = assay: Inhibition of recombinant IMP-1 (unknown origin) expressed in Escherichia coli BL21 (DE3) cells assessed as reduction in residual activity incubated for 20 hrs; conditions: dose 0.25-5 µM
Bacteria [23] = assay: Inhibition of recombinant serine beta lactamase KPC-2 (unknown origin) expressed in Escherichia coli BL21 (DE3) cells using cefazolin as substrate assessed as residual activity at 20 uM relative to control
Escherichia coli [24] = assay: Synergistic antibacterial activity against Escherichia coli clinical isolate 24 assessed as meropenem MIC at 64 microg/ml measured after 16 hrs by CLSI protocol based broth microdilution method (reference value: 256 microg/ml); format: functional; conditions: dose 64 µg/ml
Escherichia coli [25] = assay: Synergistic antibacterial activity against Escherichia coli BL21 (DE3) harboring metallo-beta-lactamase IMP-1 assessed as meropenem MIC at 64 microg/ml measured after 16 hrs by CLSI protocol based broth microdilution method (reference value: 64 microg/ml); format: functional; conditions: dose 64 µg/ml
Escherichia coli [26] = assay: Synergistic antibacterial activity against Escherichia coli harboring serine beta-lactamase OXA-48 infected in Kunming mouse model assessed as reduction in bacterial load in spleen at 20 mg/kg, ip co-administered with 1 mg/kg of meropenem; format: functional, organism-based
Escherichia coli [27] = assay: Synergistic antibacterial activity against Escherichia coli BL21 (DE3) harboring NDM-1 assessed as fold decrease in meropenem MIC at 64 microg/ml measured after 16 hrs by CLSI protocol based broth microdilution method; format: functional; conditions: dose 64 µg/ml
Bacteria [28] = assay: Inhibition of recombinant serine beta lactamase KPC-2 (unknown origin) expressed in Escherichia coli BL21 (DE3) cells assessed as maximal inhibition at 5 uM incubated for 2.5 hrs
Bacteria [29] = assay: Inhibition of recombinant serine beta lactamase KPC-2 (unknown origin) expressed in Escherichia coli BL21 (DE3) cells assessed as reduction in residual activity incubated for 360 min; conditions: dose 0.25-5 µM
Escherichia coli [30] = assay: Synergistic antibacterial activity against Escherichia coli clinical isolate 08 assessed as fold decrease in meropenem MIC at 64 microg/ml measured after 16 hrs by CLSI protocol based broth microdilution method; format: functional; conditions: dose 64 µg/ml
Escherichia coli [31] = assay: Synergistic antibacterial activity against Escherichia coli BL21 (DE3) harboring NDM-1 assessed as reduction in meropenem MIC upto 256 microg/ml in presence of meropenem by microdilution checkerboard assay; format: functional, organism-based; conditions: dose <= 256.0 µg/ml
[32] = target: Metallo-beta-lactamase type 2 (Bacteria) (UniProt C7C422); assay: Inhibition of recombinant NDM-1 (unknown origin) expressed in Escherichia coli BL21 (DE3) cells assessed as reduction in residual activity incubated for 20 hrs; conditions: dose 0.3-5 µM

Chain of Metallo-beta-lactamase type 2 (Bacteria) (C7C422 whole entry): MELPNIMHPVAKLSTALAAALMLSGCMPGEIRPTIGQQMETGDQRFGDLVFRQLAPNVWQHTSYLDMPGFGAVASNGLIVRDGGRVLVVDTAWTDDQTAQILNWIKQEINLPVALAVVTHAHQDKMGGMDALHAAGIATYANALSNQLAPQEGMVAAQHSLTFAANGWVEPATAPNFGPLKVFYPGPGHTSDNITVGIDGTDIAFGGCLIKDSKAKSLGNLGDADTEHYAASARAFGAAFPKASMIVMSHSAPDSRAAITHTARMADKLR
Chain of Metallo-beta-lactamase type 2 (C7C422 whole entry): as above

**Q.** Which results are given for O=C(CCCc1ccccc1)NOC(=O)OCc1ccccc1?
**A.** inhibition (Bacteria [1]): > 90%; inhibition [2]: > 90%; fold change (FC) (Escherichia coli [3]): 2; inhibition [4]: Active; inhibition (Bacteria [5]): < 42%; Activity (Escherichia coli [6]): Active; inhibition (Bacteria [7]): Active; Activity (Escherichia coli [8]): Active; Activity (Escherichia coli [9]): Active; Ki [10]: 0.55 µM; inhibition (Bacteria [11]): > 90%; IC50 [12]: 0.64 µM; Activity (Escherichia coli [13]): inactive; inhibition (Bacteria [14]): Active; IC50 [15]: 1.01 µM; Activity (Escherichia coli [16]): Active; viability at 48 h, up to 200 µM [17]: > 80%; Activity (Escherichia coli [18]): inactive; MIC (Escherichia coli [19]): 4 mg/L; inhibition (Bacteria [20]): Active; Activity (Escherichia coli [21]): inactive; inhibition (Bacteria [22]): Dose-Dependent Effect; Activity (Bacteria [23]): < 10%; MIC (Escherichia coli [24]): 128 mg/L; MIC (Escherichia coli [25]): 16 mg/L; Activity (Escherichia coli [26]): Active; fold change (FC) (Escherichia coli [27]): 8; inhibition (Bacteria [28]): Active; inhibition (Bacteria [29]): Dose-Dependent Effect; fold change (FC) (Escherichia coli [30]): 2; Activity (Escherichia coli [31]): Active; inhibition [32]: Dose-Dependent Effect
